Measurements as given in ChEMBL document CHEMBL1201862, “PubChem BioAssay data set” (2004).
Active and inactive are the calls of the source. For most assays here, no stated cut-off is given here; in the data, actives have a measured EC50 and inactives only a lower limit.

Legend:
[1] = target: T1, Corticotropin-releasing factor receptor 2/Corticotropin-releasing factor-binding protein (Homo sapiens, UniProt P24387+Q13324); test: activators of CRF receptor 2 with binding protein – uHTS hits, confirmation (AID 602473); type: functional; settings: read-out: EC50_Mean
T1 sequence (Q13324 whole entry): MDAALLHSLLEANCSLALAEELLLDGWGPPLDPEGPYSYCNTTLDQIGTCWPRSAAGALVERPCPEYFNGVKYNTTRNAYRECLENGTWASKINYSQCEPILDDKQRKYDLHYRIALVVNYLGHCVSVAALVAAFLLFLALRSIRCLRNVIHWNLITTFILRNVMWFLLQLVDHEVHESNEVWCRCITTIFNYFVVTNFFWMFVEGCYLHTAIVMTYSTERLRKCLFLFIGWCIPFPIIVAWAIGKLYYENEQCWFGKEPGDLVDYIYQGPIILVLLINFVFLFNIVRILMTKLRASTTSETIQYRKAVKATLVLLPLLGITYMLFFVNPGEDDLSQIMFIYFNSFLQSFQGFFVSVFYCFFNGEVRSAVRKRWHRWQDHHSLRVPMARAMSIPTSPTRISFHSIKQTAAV
T1 sequence (P24387 whole entry): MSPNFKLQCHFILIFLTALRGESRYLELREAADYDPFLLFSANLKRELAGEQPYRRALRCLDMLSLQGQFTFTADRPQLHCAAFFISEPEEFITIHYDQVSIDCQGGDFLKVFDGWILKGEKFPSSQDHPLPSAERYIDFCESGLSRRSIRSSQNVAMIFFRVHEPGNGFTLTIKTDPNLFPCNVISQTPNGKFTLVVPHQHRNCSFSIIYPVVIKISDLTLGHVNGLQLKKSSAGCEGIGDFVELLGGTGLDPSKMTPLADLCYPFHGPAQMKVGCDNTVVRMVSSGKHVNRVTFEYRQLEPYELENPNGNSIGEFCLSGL

[2] = target: T1, Corticotropin-releasing factor receptor 2/Corticotropin-releasing factor-binding protein; test: Dose Response confirmation of uHTS hits for small molecule antagonists of the CRF-binding protein and CRF-R2 receptor complex.; type: functional; settings: read-out: IC50_Mean
[3] = Luminescence Cell-Based Dose Confirmation HTS to Identify Activators of 5'UTR Stem-Loop Driven Alpha-Synuclein mRNA Translation in H4 Neuroglioblastoma Cells. [Related pubchem assays: 1829 (Project Summary), 1814 (Primary HTS)]; type: functional
[4] = Luminescence Cell-Based Dose Response HTS to Identify Activators of Luciferase Translation or Activity in H4 […] Cells. [Related pubchem assays: 1829 (Project Summary), 1814 (Primary HTS)]; type: functional
H9c2 = test: cells; type: functional, cell-based; settings: Rattus norvegicus, H9c2, Myocardium;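 further: confirmatory concentration-response retest of ultra-high-throughput screening hits for modulation of myocardial damage; cell death induced by hydrogen peroxide oxidative stress; compound pretreatment for 60 min then peroxide exposure for 2 h; potency is for protecting the cells against peroxide damage rather than for killing them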
H4 = test: Luminescence Cell-Based Dose Response HTS to Identify Activators of 5'UTR Stem-Loop Driven Prion Protein mRNA Translation in H4 Neuroglioblastoma Cells. [Related pubchem assays: 1829 (Project Summary), 1814 (Primary HTS)]; type: functional; settings: Homo sapiens
[5] = target: Luciferin 4-monooxygenase (Photinus pyralis, UniProt P08659); test: inhibition of purified Photinus pyralis luciferase – biochemical, luminescence, dose response (AID 1891)
Sequence of Luciferin 4-monooxygenase (P08659 whole entry): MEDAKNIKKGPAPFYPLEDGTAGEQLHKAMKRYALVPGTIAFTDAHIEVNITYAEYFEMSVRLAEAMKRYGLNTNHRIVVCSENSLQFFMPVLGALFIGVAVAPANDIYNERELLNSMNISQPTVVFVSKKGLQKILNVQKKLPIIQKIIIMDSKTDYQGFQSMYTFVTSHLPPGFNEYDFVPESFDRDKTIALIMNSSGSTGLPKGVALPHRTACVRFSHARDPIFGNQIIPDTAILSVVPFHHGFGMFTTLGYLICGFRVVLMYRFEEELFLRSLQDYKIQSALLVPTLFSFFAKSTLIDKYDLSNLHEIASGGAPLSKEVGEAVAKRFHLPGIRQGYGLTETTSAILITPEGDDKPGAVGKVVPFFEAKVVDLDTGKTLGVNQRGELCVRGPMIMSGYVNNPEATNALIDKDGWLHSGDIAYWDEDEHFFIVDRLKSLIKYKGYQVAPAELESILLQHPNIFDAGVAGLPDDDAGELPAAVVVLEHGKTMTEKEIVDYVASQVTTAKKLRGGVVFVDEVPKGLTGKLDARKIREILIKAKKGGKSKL

[6] = Luminescence Cell-Based Dose Confirmation HTS to Identify Inhibitors of Platelet Dense Granule Release. [Related pubchem assays: 1663 (Primary HTS), 1678 (Summary of Project)]; type: functional
[7] = fluconazole-exposed Candida albicans growth modulators – fluorescence, retest, confirmation (AID 2467); type: functional, cell-based
[8] = NIH-3T3 fibroblast cytotoxicity, dose response, cytotoxicity control, cell-based, fluorescence, Alamar Blue, secondary assay (AID 2327); type: functional;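 further: NIH-3T3 mouse fibroblasts cultured with fluconazole at 8 µg/mL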
BJ [9] = test: BJ-TERT-LT-ST fibroblast viability loss – cell-based, RAS-independent, luminescence, dose response (AID 1935); type: functional; settings: Homo sapiens;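 further: BJ fibroblasts immortalized with TERT plus LT and ST oncogenes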
BJ [10] = test: cells; type: functional, cell-based; settings: Homo sapiens
[11] = DRD fibroblast viability loss – cell-based, non-viral oncogenic, luminescence, dose response (AID 1934); type: functional; settings: Homo sapiens
BJ [12] = test: BJ-TERT fibroblast viability loss – cell-based, RAS-independent, luminescence, dose response (AID 1933); type: functional; settings: Homo sapiens
Protein skinhead-1 = target: T2, Protein skinhead-1 (Caenorhabditis elegans, UniProt P34707); type: functional
T2 sequence (P34707 whole entry): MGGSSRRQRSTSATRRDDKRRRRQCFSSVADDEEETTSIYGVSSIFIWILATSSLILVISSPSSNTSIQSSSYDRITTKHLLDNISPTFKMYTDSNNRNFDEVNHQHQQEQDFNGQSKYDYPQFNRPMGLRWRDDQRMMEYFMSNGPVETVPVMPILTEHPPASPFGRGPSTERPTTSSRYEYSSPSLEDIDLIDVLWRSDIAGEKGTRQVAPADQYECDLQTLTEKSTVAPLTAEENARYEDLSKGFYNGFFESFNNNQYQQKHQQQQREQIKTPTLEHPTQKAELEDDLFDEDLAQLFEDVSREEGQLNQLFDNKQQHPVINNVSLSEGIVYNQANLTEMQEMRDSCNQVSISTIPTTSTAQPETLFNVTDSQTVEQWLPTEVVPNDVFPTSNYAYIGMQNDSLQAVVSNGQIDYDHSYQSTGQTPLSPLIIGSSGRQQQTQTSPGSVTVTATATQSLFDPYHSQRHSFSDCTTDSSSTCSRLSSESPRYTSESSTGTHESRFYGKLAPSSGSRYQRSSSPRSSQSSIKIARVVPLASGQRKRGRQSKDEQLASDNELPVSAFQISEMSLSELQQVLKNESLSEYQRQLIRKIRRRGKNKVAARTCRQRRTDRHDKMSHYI

Streptococcus = test: GAS UMAA2166 growth inhibition – luminescence, BacTiterGlo, counter-screen for streptokinase expression inhibitor project, dose response (AID 1915); type: functional, organism-based;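 further: potency for reduction of bacterial viability or growth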
[13] = system: Streptococcus sp. 'group A'; test: Streptococcus pyogenes SK(-)GAS viability under kanamycin – luminescence, BacTiterGlo, confirmation, counter-screen for streptokinase expression inhibitor project, dose response (AID 1900); type: functional, organism-based
Streptokinase A = target: T3, Streptokinase A (Streptococcus pyogenes serotype M1, UniProt P10520); test: viability-normalized secreted streptokinase activity reduction – plasminogen activation absorbance, OD405, dose response (AID 1914); type: functional, Streptococcus pyogenes M1 GAS;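 further: secreted streptokinase activity via plasminogen activation per viability signal from cell pellet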
T3 sequence (P10520 whole entry): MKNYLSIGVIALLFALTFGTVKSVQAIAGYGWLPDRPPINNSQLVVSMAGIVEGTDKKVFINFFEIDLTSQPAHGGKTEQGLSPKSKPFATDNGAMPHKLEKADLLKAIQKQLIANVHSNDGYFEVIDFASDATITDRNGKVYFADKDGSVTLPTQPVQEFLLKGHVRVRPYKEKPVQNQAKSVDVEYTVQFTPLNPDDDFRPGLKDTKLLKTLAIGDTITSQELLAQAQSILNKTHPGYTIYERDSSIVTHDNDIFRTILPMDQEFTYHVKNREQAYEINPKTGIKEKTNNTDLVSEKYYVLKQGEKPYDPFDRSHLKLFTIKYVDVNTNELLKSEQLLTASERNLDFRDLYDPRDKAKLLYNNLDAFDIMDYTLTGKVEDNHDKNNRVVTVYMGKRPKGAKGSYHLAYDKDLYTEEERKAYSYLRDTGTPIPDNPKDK

[14] = P. falciparum Dd2 growth inhibitors, dose response, SYBR Green, cherry-picked samples (AID 1159567); type: functional, cell-based

Compound: COC(=O)c1ccc(OCC(O)CN2C(=O)c3ccccc3S2(=O)=O)cc1 (stereo unspecified)
- EC50 [1]: > 53 µM (inactive)
- IC50 [2]: > 47.1 µM (inactive)

Compound: O=C(CCc1nc(O)c2ccccc2n1)Nc1nc(-c2cccs2)cs1
- EC50 [3]: 12.5 µM (active)
- EC50 [4]: 15.8 µM (active)
- IC50 (H9c2): 17.3 µM (active)
- EC50 (H4): 104 µM (inconclusive)

Compound: COc1ccccc1NC(=O)c1cc([N+](=O)[O-])ccc1N1CCOCC1
- EC50 [5]: > 112 µM (not active)
- EC50 [6]: > 112 µM (not active)

Compound: c1ccc(CN2CCc3nc4ccccc4cc3C2)cc1
- EC50 [3]: 0.215 µM (active)
- EC50 [4]: 33.8 µM (active)
- EC50 [7]: > 38 µM (not active)
- EC50 [8]: > 160 µM (inconclusive)
- EC50 (H4): 52.7 µM (active)

Compound: CCOc1ccc(NC(=O)CCNS(=O)(=O)c2cccc3nonc23)cc1
- EC50 [1]: > 53 µM (inactive)
- IC50 [2]: > 47.1 µM (inactive)

Compound: O=C(COC(=O)c1cc(-c2cccnc2)nc2ccccc12)Nc1ccc(F)cc1F
- IC50 (H9c2): 13.8 µM (active)

Compound: CCCC(=O)Nc1ccc2c(c1)nc(CN1CCN(C(=O)OCC)CC1)n2CC
- EC50 (BJ [9]): > 75 µM (inconclusive)
- EC50 (BJ [10]): 122 µM (active)
- EC50 [11]: 18 µM (active)
- EC50 (BJ [12]): 15.4 µM (inconclusive)

Compound: CCOC(=O)c1sc(NN=C2C(=O)CC(C)(C)CC2=O)c(C(=O)OCC)c1C
- EC50 [5]: > 112 µM (not active)
- EC50 [6]: 20.4 µM (active)

Compound: COc1ccc(-c2cc(C(F)F)n3ncc(C(=O)n4ccnc4C)c3n2)cc1
- EC50 (BJ [9]): > 150 µM (inconclusive)
- EC50 (BJ [10]): 15.3 µM (active)
- EC50 [11]: 7.6 µM (active)
- EC50 (BJ [12]): 7.36 µM (inconclusive)

Compound: COc1ccc(NC(=O)c2cn(CCC#N)nc2-c2ccc([N+](=O)[O-])cc2)cc1
- EC50 (BJ [9]): > 150 µM (not active)
- EC50 (BJ [10]): > 150 µM (not active)
- EC50 [11]: > 150 µM (not active)
- EC50 (BJ [12]): > 150 µM (not active)

Compound: Cc1noc(/C=C/N(C)C)c1S(=O)(=O)N1CCC(C(=O)Nc2ccc(Cl)cc2)CC1
- EC50 [1]: > 53 µM (inactive)
- IC50 [2]: > 47.1 µM (inactive)

Compound: c1ccc(-c2cc3nccc(-c4ccccn4)n3n2)cc1
- EC50 [1]: > 53 µM (inactive)
- IC50 (Protein skinhead-1): 47 µM (active)
- IC50 [2]: > 47.1 µM (inactive)

Compound: COc1ccccc1NC1=NC(=O)/C(=C/c2ccc(N(C)C)cc2)S1
- EC50 (Streptococcus): 46.7 µM (active)
- EC50 (BJ [9]): 64.2 µM (inconclusive)
- EC50 (BJ [10]): 59 µM (active)
- EC50 [11]: 1.45 µM (active)
- EC50 (BJ [12]): 1.91 µM (active)
- EC50 [13]: 15.1 µM (active)
- EC50 (Streptokinase A): > 150 µM (not active)

Compound: CCOC(=O)N1CCC(n2c(SCC(=O)N3CCC(C)CC3)nc3ccccc3c2=O)CC1
- IC50 (H9c2): > 79 µM (inactive)

Compound: Cn1cc(S(=O)(=O)N2CCCC2)cc1C(=O)N1CCN(c2cccc(Cl)c2)CC1
- EC50 [5]: > 112 µM (not active)
- EC50 [6]: > 112 µM (not active)

Compound: Cn1c(=O)n(C)c2cc(S(=O)(=O)NCc3ccccc3)ccc21
- EC50 [5]: > 112 µM (not active)
- EC50 [6]: > 112 µM (not active)

Compound: COc1cc(OC)cc(C(=O)NC2CC3CCC(C2)N3Cc2ccco2)c1 (stereo unspecified)
- EC50 [1]: > 53 µM (inactive)
- IC50 [2]: > 47.1 µM (inactive)

Compound: O=C(Cc1ccccc1)Nc1nonc1NC(=O)c1ccccc1
- EC50 [7]: 3.18 µM (active)
- EC50 [8]: > 150 µM (inactive)

Compound: CC(OC(=O)c1ccc(-c2ccc(O)cc2)cc1)C(=O)NC1CCCCC1C (stereo unspecified)
- EC50 [1]: > 53 µM (inactive)
- IC50 [2]: > 47.1 µM (inactive)

Compound: O=C(Nc1ccc(F)cc1)Nc1ccccc1F
- EC50 [5]: 6.85 µM (active)
- EC50 [6]: 12.1 µM (active)

Compound: Cc1ccc2nc(-c3ccccc3)cc(C(=O)NNC(=O)c3csc(N4CCOCC4)n3)c2c1
- IC50 (H9c2): > 79 µM (inactive)

Compound: C=CCCC(=O)N1CCC(n2nccc2NC(=O)c2ccc(OC)cc2)CC1
- EC50 [1]: > 53 µM (inactive)
- IC50 [2]: > 47.1 µM (inactive)

Compound: C=CCN1C(=O)NC(=O)/C(=C(/CC)NCc2ccc3c(c2)OCO3)C1=O
- EC50 [1]: > 53 µM (inactive)
- IC50 [2]: > 47.1 µM (inactive)

Compound: COc1ccc(C(=O)Nc2ccccc2C(=O)N/N=C/c2ccccc2OC)cc1
- EC50 [5]: 0.286 µM (active)
- EC50 [6]: 1.11 µM (active)

Compound: COc1ccc(C(=O)Nc2ccccc2C(=O)N/N=C/c2ccco2)cc1
- EC50 [5]: 0.329 µM (active)
- EC50 [6]: 4.14 µM (active)

Compound: Cc1ccc(-n2nc(C)c(/C=N/c3ccc(S(=O)(=O)Nc4nccs4)cc3)c2O)cc1
- EC50 (BJ [9]): > 150 µM (not active)
- EC50 (BJ [10]): > 150 µM (not active)
- EC50 [11]: 24 µM (active)
- EC50 (BJ [12]): 12.8 µM (active)

Compound: CC(C)(O)C#Cc1ccc([C@H]2[C@H](CO)N3CCCCN(C(=O)c4ccc(F)cc4)C[C@@H]23)cc1
- AC50 [14]: 15.3 µM (active)

Compound: COc1cccc(CN2CC3(CN(Cc4ccccn4)C3)c3c([nH]c4cc(OC)ccc34)[C@H]2CO)c1
- AC50 [14]: 5.33 µM (active)

Compound: CN(C)c1ccc2c(c1)[C@@H]1C[C@H](CC(=O)N3CCc4ccccc4C3)O[C@@H](CO)[C@@H]1O2
- AC50 [14]: 7.8 µM (active)
